Each structure is given as a SMILES string. ± gives the standard deviation of the averaged measurements.

The series deals with McpC ligand-binding domain (Salmonella Typhimurium SL1344). Kind of series: protein melting temperature (Tm) in presence of compound (degrees C); higher = more thermal stabilisation (possible ligand binding). The following applies: compound stock concentration: 10-20 mM, 2 uL in 10 uL reaction.

`Nc1ccn([C@@H]2O[C@H](CO)[C@@H](O)[C@H]2O)c(=O)n1` [Cytidine]: the protein melting temperature is 44.7 (Biolog plate: PM03B) and 43.9 (Biolog plate: PM05).
As to `Nc1cc[nH]c(=O)n1` [Cytosine], the protein melting temperature is, setting by setting: (Biolog plate: PM03B) 45.2; (Biolog plate: PM05) 44.3.
`O=C(O)C(CO)OP(=O)(O)O` [D-2-Phospho-Glyceric acid]: where the note is “Biolog plate: PM04A”, the protein melting temperature stood at 44.1.
Consider `O=C(O)C(O)COP(=O)(O)O` [D-3-Phospho-Glyceric acid], for which the protein melting temperature (Biolog plate: PM04A) was 44.9.
With `C[C@@H](N)C(=O)O` [D-Alanine], the protein melting temperature (Biolog plate: PM01) was determined as 43.9, the protein melting temperature (Biolog plate: PM03B) came out at 44.9 and the protein melting temperature (Biolog plate: PM05) came to 44.
Turning to `OC1OC[C@@H](O)[C@@H](O)[C@@H]1O` (stereo partly drawn) [D-Arabinose], the protein melting temperature (Biolog plate: PM02A) came out at 43.6.
With `OC[C@@H](O)C(O)[C@H](O)CO` [D-Arabitol], the protein melting temperature (Biolog plate: PM02A) amounted to 44.4.
With `NC(=O)C[C@@H](N)C(=O)O` [D-Asparagine], where the note is “Biolog plate: PM03B”, the protein melting temperature stood at 44.8.
On to `N[C@H](CC(=O)O)C(=O)O` [D-Aspartic acid], for which the protein melting temperature reads like this: (Biolog plate: PM01) 44.2; (Biolog plate: PM03B) 44.9; (Biolog plate: PM05) 44.4.
Turning to `O=C(O)CCCC[C@@H]1SC[C@@H]2NC(=O)N[C@@H]21` [D-Biotin], the protein melting temperature (Biolog plate: PM05) is 44.5.
With `O=C(CO)[C@@H](O)[C@H](O)[C@H](O)CO` [D-Fructose], the protein melting temperature (Biolog plate: PM01) is 44.3.
Consider `C[C@@H](O)[C@H](O)[C@H](O)[C@@H](O)C=O` [D-Fucose], for which the protein melting temperature (Biolog plate: PM02A) was determined as 43.3.
Take `OC[C@H]1OC(O)[C@H](O)[C@@H](O)[C@H]1O` (stereo partly drawn) [D-Galactose]: the protein melting temperature (Biolog plate: PM01) amounted to 44.8.
For `O=C(O)[C@H]1OC(O)[C@H](O)[C@@H](O)[C@H]1O` (stereo partly drawn) [D-Galacturonic acid], the protein melting temperature (Biolog plate: PM01) turned out to be 44.4.
Turning to `N[C@@H]1[C@@H](O)[C@H](O)[C@@H](COP(=O)(O)O)O[C@@H]1O` [D-Glucosamine-6-Phosphate], where the note is “Biolog plate: PM04A”, the protein melting temperature was 44.1.
In the case of `O=C[C@H](O)[C@@H](O)[C@H](O)[C@H](O)COP(=O)(O)O` [D-Glucose-6-Phosphate], the protein melting temperature is, setting by setting: (Biolog plate: PM01) 44.6; (Biolog plate: PM04A) 43.8.
On to `N[C@H](CCC(=O)O)C(=O)O` [D-Glutamic acid], for which the protein melting temperature by setting is: (Biolog plate: PM03B) 45; (Biolog plate: PM05) 44.8.
Consider `COC(=O)[C@@H](C)O` [D-Lactic acid Methyl Ester], for which, where the note is “Biolog plate: PM02A”, the protein melting temperature amounted to 44.4.
As to `OC[C@@H](O)[C@@H](O[C@@H]1O[C@H](CO)[C@H](O)[C@H](O)[C@H]1O)[C@H](O)[C@@H](O)CO` [D-Lactitol], the protein melting temperature (Biolog plate: PM02A) was 44.7.
In the case of `NCCCC[C@@H](N)C(=O)O` [D-Lysine], the protein melting temperature (Biolog plate: PM03B) worked out at 44.3.
Take `O=C(O)C[C@@H](O)C(=O)O` [D-Malic acid]: where the note is “Biolog plate: PM01”, the protein melting temperature was determined as 43.6.
Turning to `OC[C@@H](O)[C@@H](O)[C@H](O)[C@H](O)CO` [D-Mannitol], for the setting “Biolog plate: PM01”, the protein melting temperature came to 44.7.
On to `N[C@@H]1C(O)O[C@H](CO)[C@@H](O)[C@@H]1O` (stereo partly drawn) [D-Mannosamine], for which, under “Biolog plate: PM03B”, the protein melting temperature came to 44.6.
`OC[C@H]1OC(O)[C@@H](O)[C@@H](O)[C@@H]1O` (stereo partly drawn) [D-Mannose]: the protein melting temperature (Biolog plate: PM01) came to 44.2.
Regarding `OC[C@H]1O[C@@](CO)(O[C@H]2O[C@H](CO)[C@@H](O)[C@H](O)[C@H]2O)[C@@H](O[C@H]2O[C@H](CO)[C@@H](O)[C@H](O)[C@H]2O)[C@@H]1O` [D-Melezitose], the protein melting temperature (Biolog plate: PM02A) worked out at 44.5.
For `OC[C@H]1O[C@H](OC[C@H]2OC(O)[C@H](O)[C@@H](O)[C@@H]2O)[C@H](O)[C@@H](O)[C@H]1O` (stereo partly drawn) [D-Melibiose], the protein melting temperature (Biolog plate: PM01) is 44.7.
Turning to `CSCC[C@@H](N)C(=O)O` [D-Methionine], the protein melting temperature (Biolog plate: PM04A) was 43.7.
Consider `CC(C)(CO)[C@@H](O)C(=O)NCCC(=O)O` [D-Pantothenic acid], for which the protein melting temperature (Biolog plate: PM05) came to 43.7.
Regarding `OCC1(O)OC[C@@H](O)[C@@H](O)[C@H]1O` (stereo partly drawn) [D-Psicose], the protein melting temperature (Biolog plate: PM01) turned out to be 45.
`OC[C@H]1O[C@H](OC[C@H]2O[C@H](O[C@]3(CO)O[C@H](CO)[C@@H](O)[C@@H]3O)[C@H](O)[C@@H](O)[C@@H]2O)[C@H](O)[C@@H](O)[C@H]1O` [D-Raffinose]: the protein melting temperature (Biolog plate: PM02A) was found to be 44.4.
Take `O=C1O[C@H](CO)[C@@H](O)[C@H]1O` [D-Ribono-1,4-Lactone]: for the setting “Biolog plate: PM02A”, the protein melting temperature was 44.4.
Regarding `O[C@@H]1[C@H](O)[C@H](O)CO[C@H]1O` [D-Ribose], the protein melting temperature (Biolog plate: PM01) is 44.2.
With `O=C(O)[C@@H](O)[C@@H](O)[C@H](O)[C@@H](O)C(=O)O` [D-Saccharic acid], the protein melting temperature (Biolog plate: PM01) amounted to 44.4.
For `OC[C@@H](O)[C@@H](O)[C@H](O)[C@@H](O)CO` [D-Sorbitol], the protein melting temperature (Biolog plate: PM01) was determined as 45.
On to `O=C(CO)[C@@H](O)[C@@H](O)[C@H](O)CO` [D-Tagatose], for which, where the note is “Biolog plate: PM02A”, the protein melting temperature was 44.
Consider `C[C@H](O)[C@@H](N)C(=O)O` [D-Threonine], for which the protein melting temperature (Biolog plate: PM01) stood at 44.
As to `OC[C@H]1O[C@H](O[C@H]2O[C@H](CO)[C@@H](O)[C@H](O)[C@H]2O)[C@H](O)[C@@H](O)[C@@H]1O` [D-Trehalose], the protein melting temperature (Biolog plate: PM01) stood at 43.9.
For the compound `CC(C)[C@@H](N)C(=O)O` [D-Valine], the protein melting temperature (Biolog plate: PM03B) was found to be 44.7.
Turning to `CC(=O)N(O)CCCCCNC(=O)CCC(=O)N(O)CCCCCNC(=O)CCC(=O)N(O)CCCCCN` [Deferoxamine], the protein melting temperature (Biolog plate: PM05) worked out at 44.4.
With `OC[C@H]1OC(O[C@H]2[C@H](O)[C@@H](O)C(O[C@H]3[C@H](O)[C@@H](O)[C@@H](O)O[C@@H]3CO)O[C@@H]2CO)[C@H](O)[C@@H](O)[C@@H]1O` (stereo partly drawn) [Dextrin], the protein melting temperature (Biolog plate: PM02A) was found to be 44.
As for `OP(O)(=S)S` [Dithiophosphate], the protein melting temperature (Biolog plate: PM04A) was 43.6 ± 0.59.
With `OC[C@@H](O)[C@H](O)[C@H](O)[C@@H](O)CO` [Dulcitol], the protein melting temperature (Biolog plate: PM01) worked out at 44.6.
As for `NCCO` [Ethanolamine], under “Biolog plate: PM03B”, the protein melting temperature came to 44.4.
On the same count and under the same terms, with `CCN` [Ethylamine] the figure was 44.7.
`Nc1nc(=O)c2nc(CNc3ccc(C(=O)N[C@@H](CCC(=O)O)C(=O)O)cc3)cnc2[nH]1` [Folic acid]: the protein melting temperature (Biolog plate: PM05) came to 43.8.
Consider `NC=O` [Formamide], for which the protein melting temperature (Biolog plate: PM03B) is 45.6.
As to `O=C(O)/C=C/C(=O)O` [Fumaric acid], for the setting “Biolog plate: PM01”, the protein melting temperature worked out at 44.6.
For the compound `O=C[C@H](O)[C@@H](O)[C@H](O)[C@H](O)CO[C@@H]1O[C@H](CO)[C@@H](O)[C@H](O)[C@H]1O` [Gentiobiose], the protein melting temperature (Biolog plate: PM02A) amounted to 44.5.
As for `NC(=O)[C@H]1O[C@@H](O)[C@H](O)[C@@H](O)[C@@H]1O` [Glucuronamide], the protein melting temperature stood at 44.9 (Biolog plate: PM01) and 45.7 (Biolog plate: PM03B).
Turning to `N[C@@H](CCC(=O)N[C@@H](CS)C(=O)NCC(=O)O)C(=O)O` [Glutathione], the protein melting temperature runs as follows: (Biolog plate: PM04A) 43.7; (Biolog plate: PM05) 43.6.
Take `NCC(=O)N[C@@H](CC(N)=O)C(=O)O` [Gly-Asn]: the protein melting temperature (Biolog plate: PM03B) came to 44.5.
For the compound `NCC(=O)N[C@@H](CC(=O)O)C(=O)O` [Gly-Asp], the protein melting temperature (Biolog plate: PM01) came to 44.4.
Regarding `NCC(=O)N[C@@H](CCC(N)=O)C(=O)O` [Gly-Gln], the protein melting temperature (Biolog plate: PM03B) is 45.2.
As for `NCC(=O)N[C@@H](CCC(=O)O)C(=O)O` [Gly-Glu], the protein melting temperature runs as follows: (Biolog plate: PM01) 44.9; (Biolog plate: PM03B) 45.1.
For `CSCC[C@H](NC(=O)CN)C(=O)O` [Gly-Met], the protein melting temperature reads like this: (Biolog plate: PM03B) 45.2; (Biolog plate: PM04A) 43.8.
`NCC(=O)N1CCC[C@H]1C(=O)O` [Gly-Pro]: under “Biolog plate: PM01”, the protein melting temperature was determined as 44.2.
With `NCC(=O)O` [Glycine], the protein melting temperature by setting is: (Biolog plate: PM02A) 44.4; (Biolog plate: PM03B) 44.8; (Biolog plate: PM05) 43.9.
For the compound `OC[C@H]1O[C@H](OC[C@H]2O[C@H](O[C@H]3[C@H](O)[C@@H](O)[C@@H](O)O[C@@H]3CO)[C@H](O)[C@@H](O)[C@@H]2O[C@H]2O[C@H](CO)[C@@H](O)[C@H](O)[C@H]2O)[C@H](O)[C@@H](O)[C@@H]1O` [Glycogen], for the setting “Biolog plate: PM02A”, the protein melting temperature was 44.8.
On to `Nc1nc2[nH]cnc2c(=O)[nH]1` [Guanine], for which the protein melting temperature reads like this: (Biolog plate: PM03B) 44.7; (Biolog plate: PM05) 44.4.
For the compound `Nc1nc2c(ncn2[C@@H]2O[C@H](CO)[C@@H](O)[C@H]2OP(=O)(O)O)c(=O)[nH]1` [Guanosine 2`-Monophosphate], the protein melting temperature (Biolog plate: PM04A) was determined as 44.
In the case of `Nc1nc2c(ncn2[C@@H]2O[C@H](CO)[C@@H](OP(=O)(O)O)[C@H]2O)c(=O)[nH]1` [Guanosine 3`-Monophosphate], the protein melting temperature (Biolog plate: PM04A) is 43.9.
Still for that read-out and setting: with `Nc1nc2c(ncn2[C@@H]2O[C@H](COP(=O)(O)O)[C@@H](O)[C@H]2O)c(=O)[nH]1` [Guanosine 5`-Monophosphate] the figure was 43.9.
For `Nc1nc2c(ncn2[C@@H]2O[C@H](CO)[C@@H](O)[C@H]2O)c(=O)[nH]1` [Guanosine], the protein melting temperature is 45.5 (Biolog plate: PM03B) and 44.5 (Biolog plate: PM05).
With `NCCc1c[nH]cn1` [Histamine], the protein melting temperature (Biolog plate: PM03B) was found to be 45.1.
In the case of `O=C(O)[C@@H]1C[C@@H](O)CN1` [Hydroxy-L-Proline], the protein melting temperature runs as follows: (Biolog plate: PM02A) 44.2; (Biolog plate: PM05) 43.8.
Take `O=PO` [Hypophosphite]: where the note is “Biolog plate: PM04A”, the protein melting temperature worked out at 44.1.
For `NCCS(=O)O` [Hypotaurine], the protein melting temperature (Biolog plate: PM04A) was 44.5.
Take `O=c1[nH]cnc2nc[nH]c12` [Hypoxanthine]: the protein melting temperature (Biolog plate: PM05) amounted to 44.
Consider `O=c1[nH]cnc2c1ncn2[C@@H]1O[C@H](CO)[C@@H](O)[C@H]1O` [Inosine], for which the protein melting temperature (Biolog plate: PM01) was determined as 44.4, the protein melting temperature (Biolog plate: PM03B) was 44.6 and the protein melting temperature (Biolog plate: PM05) was found to be 44.6.

Source of the values: the supplement of paper PMC7806825.
